Measurements published in patent US10689377B2 (Mirati Therapeutics, Inc., priority 2017, dated 2020).

How the values were obtained:
KRas G12C [1] = target: KRas G12C (Homo sapiens, UniProt P01116, C118S/C51S/C80L/G12C); test: KRas G12C Modification Assay (LCMS detection of covalent adduct); assay type: binding
Experimental: A 10 μL aliquot of each protein solution was then transferred to a 384 well microtiter plate. Initial compound stocks were generated at fifty times their desired final assay concentration in DMSO.
Exemplary compounds of Formula (I) were diluted 25-fold into K-Ras Assay Buffer to a final of two times their final concentration. A 10 μL aliquot of each diluted compound solution was then added to each of the protein solutions in the microtiter plate to initiate reaction. […] At each time point, the reactions were quenched with 20 μL of a 25 mM acetic acid solution. […] Once all reactions were quenched, the plates were heat sealed and the samples were injected into a LC/MS system for data acquisition.
Samples were injected in their liquid phase onto a C-3 reverse phase column to remove assay buffer and prepare the samples for mass spectrometer. The proteins were eluted from the column using an acetonitrile gradient and fed directly into the mass analyzer. Initial raw data analysis took place in Agilent MassHunter software immediately post data acquisition.
Raw data analysis of the intact protein was exclusively a deconvolution of the multiple charge states of each protein in solution using a maximum entropy deconvolution provided in Mass Hunter. To minimize complexity, only the data over limited mass ranges were considered for analysis, with a minimum of one Dalton mass step intervals. The heights of all masses identified during raw data analysis were exported to be further analyzed in Spotfire® data analysis software.
Final data analysis was a multistep process in the Spotfire® data analysis software package. Briefly, each protein mass was calculated as a percent of the total signal of that sample, that percentage was then normalized to the percentage of signal of the protein in the absence of reactive compounds. Those normalized signals were reported as normalized percent of control (POC). […] Key: “A”≤25% POC; “B”>25% POC-≤50% POC; “C”>50% POC and ND=not determined.

KRas G12C [2] = target: KRas G12C (Homo sapiens, UniProt P01116, G12C); test: Cellular inhibition of KRas G12C measured by Phospho-ERK in NCI-H358 cells; assay type: cell-based; conditions: pERK(Thr202/Tyr204) normalized with GAPDH, NCI-H358 cells, 3 hours; read-out: IC50
Summary of the method: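 Ratio of phospho-ERK(Thr202/Tyr204) to GAPDH, read by near-infrared secondary antibodies on fixed, permeabilised NCI-H358 cells, expressed relative to DMSO control. Compound exposure was 3 h at 0.5% DMSO. IC50 values come from 4-parameter curve fits.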

[3] = normalized percent of control, 5 μM concentration for 3 hours

Row | SMILES | POC (KRas G12C [1]; [3]) | IC50 (KRas G12C [2]) [µM] | POC (KRas G12C [1]; 5 µM)
1 | C=CC(=O)N1CCN(c2nc(OC[C@@H]3CCCN3C)nc3c2CCN(c2c(C)c(C)cc4[nH]ccc24)C3)C[C@@H]1CC#N [Example 466, 2-((S)-1-acryloyl-4-(7-(5,6-dimethyl-1H-indol-4-yl)-2-(((S)-1-methylpyrrolidin-2-yl)methoxy)-5,6,7,8-tetrahydropyrido[3,4-d]pyrimidin-4-yl)piperazin-2-yl)acetonitrile] | C (“C”>50% POC) | 0.0001 to 1 | –
2 | C=CC(=O)N1CCN(c2nc(OCCCN3CCOCC3)nc3c2CCN(c2cc(O)cc4cccnc24)C3)CC1 [Example 205, 1-(4-(7-(6-hydroxyquinolin-8-yl)-2-(3-morpholinopropoxy)-5,6,7,8-tetrahydropyrido[3,4-d]pyrimidin-4-yl)piperazin-1-yl)prop-2-en-1-one] | C (“C”>50% POC) | > 1 | –
3 | C=C(F)C(=O)N1CCN(c2nc(OC[C@@H]3C[C@@H](OC)CN3C)nc3c2CCN(c2cccc4cccc(Cl)c24)C3)C[C@@H]1CC#N [Example 577, 2-[(2S)-4-[7-(8-Chloro-1-naphthyl)-2-[[(2S,4R)-4-methoxy-1-methyl-pyrrolidin-2-yl]methoxy]-6,8-dihydro-5H-pyrido[3,4-d]pyrimidin-4-yl]-1-(2-fluoroprop-2-enoyl)piperazin-2-yl] acetonitrile] | C (“C”>50% POC) | 0.0001 to 1 | –
4 | C=CC(=O)N1CCN(c2nc(OCCN3CCC[C@@H](F)C3)nc3c2CCN(c2cc(O)cc4ccccc24)C3)CC1 [Example 207, (R)-1-(4-(2-(2-(3-fluoropiperidin-1-yl)ethoxy)-7-(3-hydroxynaphthalen-1-yl)-5,6,7,8-tetrahydropyrido[3,4-d]pyrimidin-4-yl)piperazin-1-yl)prop-2-en-1-one] | C (“C”>50% POC) | > 1 | –
5 | C=CC(=O)N1CCN(c2nc(OC[C@@H]3CCCN3C)nc3c2CCN(c2c(C)ccc4[nH]ncc24)C3)CC1CC#N (stereo partly drawn) [Example 148, 2-[4-[7-(5-methyl-1H-indazol-4-yl)-2-[[(2S)-1-methylpyrrolidin-2-yl]methoxy]-6,8-dihydro-5H-pyrido[3,4-d]pyrimidin-4-yl]-1-prop-2-enoyl-piperazin-2-yl]acetonitrile] | C (“C”>50% POC) | 0.0001 to 1 | –
6 | C=CC(=O)N1CCN(c2nc(OC[C@@H]3CCCN3C)nc3c2CCN(c2cccc4ccccc24)C3)CC1CC#N (stereo partly drawn) [Example 147, 2-[4-[2-[[(2S)-1-methylpyrrolidin-2-yl]methoxy]-7-(1-naphthyl)-6,8-dihydro-5H-pyrido[3,4-d]pyrimidin-4-yl]-1-prop-2-enoyl-piperazin-2-yl]acetonitrile] | C (“C”>50% POC) | 0.0001 to 1 | –
7 | Cc1cccc2cccc(N3CCc4c(nc(OC[C@@H]5CCN(C)C5)nc4N4CCN(C(=O)/C=C/CF)[C@@H](CC#N)C4)C3)c12 [Example 581, 2-[(2S)-1-[(E)-4-fluorobut-2-enoyl]-4-[7-(8-methyl-1-naphthyl)-2-[[(3R)-1-methylpyrrolidin-3-yl]methoxy]-6,8-dihydro-5H-pyrido[3,4-d]pyrimidin-4-yl]piperazin-2-yl]acetonitrile] | C (“C”>50% POC) | 0.0001 to 1 | –
8 | C=CC(=O)N1CCN(c2nc(OC[C@@H]3CCCN3C)nc3c2CCN(c2c(C)c(O)cc4ccccc24)C3)CC1 [Example 175, (S)-1-(4-(7-(3-hydroxy-2-methylnaphthalen-1-yl)-2-((1-methylpyrrolidin-2-yl)methoxy)-5,6,7,8-tetrahydropyrido[3,4-d]pyrimidin-4-yl)piperazin-1-yl)prop-2-en-1-one] | C (“C”>50% POC) | 0.0001 to 1 | –
9 | C=C(F)C(=O)N1CCN(c2nc(OC[C@@H]3CCCN3C)nc3c2CCN(c2cccc4ccnc(C)c24)C3)C[C@@H]1CC#N [Example 592] | C (“C”>50% POC) | > 1 | –
10 | C=CC(=O)N1CCN(c2nc(OCCCO)nc3c2CCN(c2cccc4ccccc24)C3)CC1CC#N (stereo not shown) [Example 231, 2-(1-acryloyl-4-(2-(3-hydroxypropoxy)-7-(naphthalen-1-yl)-5,6,7,8-tetrahydropyrido[3,4-d]pyrimidin-4-yl)piperazin-2-yl)acetonitrile] | C (“C”>50% POC) | 0.0001 to 1 | –
11 | C=C(F)C(=O)N1CCN(c2nc(OC[C@@H]3C[C@@H](OC)CN3C)nc3c2CCN(c2cccc4cccc(C)c24)C3)C[C@@H]1CC#N [Example 561, 2-[(2S)-1-(2-Fluoroprop-2-enoyl)-4-[2-[[(2S,4R)-4-methoxy-1-methyl-pyrrolidin-2-yl]methoxy]-7-(8-methyl-1-naphthyl)-6,8-dihydro-5H-pyrido[3,4-d]pyrimidin-4-yl]piperazin-2-yl]acetonitrile] | C (“C”>50% POC) | 0.0001 to 1 | –
12 | C=CC(=O)N1CCN(c2nc(OC[C@H]3CCCN3C)nc3c2CCN(c2cccc4ccccc24)C3)CC1CC#N (stereo partly drawn) [Example 183, 2-[4-[2-[[(2R)-1-methylpyrrolidin-2-yl]methoxy]-7-(1-naphthyl)-6,8-dihydro-5H-pyrido[3,4-d]pyrimidin-4-yl]-1-prop-2-enoyl-piperazin-2-yl]acetonitrile] | C (“C”>50% POC) | 0.0001 to 1 | –
13 | C=CC(=O)N1CCN(c2nc(OC[C@@H]3CCCN3C)nc3c2CCN(c2c(C(C)C)ccc4[nH]ncc24)C3)CC1 [Example 248, (S)-1-(4-(7-(5-isopropyl-1H-indazol-4-yl)-2-((1-methylpyrrolidin-2-yl)methoxy)-5,6,7,8-tetrahydropyrido[3,4-d]pyrimidin-4-yl)piperazin-1-yl)prop-2-en-1-one] | – | > 1 | C (key: “A”≤25% POC; “B”>25% POC-≤50% POC; “C”>50% POC)
14 | C=CC(=O)N1CCN(c2nc(OCCCN3CCOCC3)nc3c2CCN(c2c(C)c(O)cc4ccccc24)C3)CC1 [Example 173, 1-(4-(7-(3-hydroxy-2-methylnaphthalen-1-yl)-2-(3-morpholinopropoxy)-5,6,7,8-tetrahydropyrido[3,4-d]pyrimidin-4-yl)piperazin-1-yl)prop-2-en-1-one] | C (“C”>50% POC) | > 1 | –
15 | Cc1cccc2cccc(N3CCc4c(nc(OC[C@@H]5C[C@@H](F)CN5C)nc4N4CCN(C(=O)/C=C/CF)[C@@H](CC#N)C4)C3)c12 [Example 578, 2-[(2S)-1-[(E)-4-Fluorobut-2-enoyl]-4-[2-[[(2S,4R)-4-fluoro-1-methyl-pyrrolidin-2-yl]methoxy]-7-(8-methyl-1-naphthyl)-6,8-dihydro-5H-pyrido[3,4-d]pyrimidin-4-yl]piperazin-2-yl] acetonitrile] | C (“C”>50% POC) | 0.0001 to 1 | –
16 | CC#CC(=O)N1CCN(c2nc(OC[C@@H]3CCCN3C)nc3c2CCN(c2cccc4ccccc24)C3)CC1CC#N (stereo partly drawn) [Example 242, 2-(1-(but-2-ynoyl)-4-(2-(((S)-1-methylpyrrolidin-2-yl)methoxy)-7-(naphthalen-1-yl)-5,6,7,8-tetrahydropyrido[3,4-d]pyrimidin-4-yl)piperazin-2-yl)acetonitrile] | C (“C”>50% POC) | 0.0001 to 1 | –
17 | C=C(F)C(=O)N1CCN(c2nc(OC[C@@H]3CCN(C)C3)nc3c2CCN(c2cccc4cccc(Cl)c24)C3)C[C@@H]1CC#N [Example 575, 2-[(2S)-4-[7-(8-Chloro-1-naphthyl)-2-[[(3R)-1-methylpyrrolidin-3-yl]methoxy]-6,8-dihydro-5H-pyrido[3,4-d]pyrimidin-4-yl]-1-(2-fluoroprop-2-enoyl)piperazin-2-yl]acetonitrile] | C (“C”>50% POC) | 0.0001 to 1 | –
18 | C=C(F)C(=O)N1CCN(c2nc(OC[C@@H]3CC(F)(F)CN3C)nc3c2CCN(c2cccc4cccc(C)c24)C3)C[C@@H]1CC#N [Example 530, 2-((S)-4-(2-(((S)-4,4-difluoro-1-methylpyrrolidin-2-yl)methoxy)-7-(8-methylnaphthalen-1-yl)-5,6,7,8-tetrahydropyrido[3,4-d]pyrimidin-4-yl)-1-(2-fluoroacryloyl)piperazin-2-yl)acetonitrile] | C (“C”>50% POC) | 0.0001 to 1 | –
19 | C=CC(=O)N1CCN(c2nc(OCCCN3C[C@@H](F)[C@@H](F)C3)nc3c2CCN(c2cc(O)cc4ccccc24)C3)CC1 [Example 208, 1-(4-(2-(3-((3R,4S)-3,4-difluoropyrrolidin-1-yl)propoxy)-7-(3-hydroxynaphthalen-1-yl)-5,6,7,8-tetrahydropyrido[3,4-d]pyrimidin-4-yl)piperazin-1-yl)prop-2-en-1-one] | C (“C”>50% POC) | > 1 | –
20 | C=CC(=O)N1CCN(c2nc(OC[C@H]3CCN(C)C3)nc3c2CCN(c2cccc4ccccc24)C3)CC1CC#N (stereo partly drawn) [Example 399, 2-(1-acryloyl-4-(2-(((S)-1-methylpyrrolidin-3-yl)methoxy)-7-(naphthalen-1-yl)-5,6,7,8-tetrahydropyrido[3,4-d]pyrimidin-4-yl)piperazin-2-yl)acetonitrile] | C (“C”>50% POC) | 0.0001 to 1 | –
